Like-named read-outs stand apart in the source and are kept apart here.
Tests used:
RD = assay: Cell viability assay (MTT), 72 h; type: cell-based; details: Homo sapiens, RD (RMS), PIK3CA WT, read-out: Buparlisib cell viability IC50
5838 = assay: Cell viability assay (MTT), 72 h; type: cell-based; details: 5838 (ES), PIK3CA WT, read-out: Buparlisib cell viability IC50
HOS = assay: Cell viability assay (MTT), 72 h; type: cell-based; details: Homo sapiens, HOS (OS), PIK3CA WT, read-out: Buparlisib cell viability IC50
MNNG = assay: Cell viability assay (MTT), 72 h; type: cell-based; details: MNNG (OS), read-out: Buparlisib cell viability IC50
A673 = assay: Cell viability assay (MTT), 72 h; type: cell-based; details: Homo sapiens, A673 (ES), PIK3CA WT, read-out: Buparlisib cell viability IC50
PI3K = system: PI3K; design: method as in PMID 22188813; details: cited from earlier work
A4573 = assay: Cell viability assay (MTT), 72 h; type: cell-based; details: A4573 (ES), PIK3CA WT, read-out: Buparlisib cell viability IC50
OS 187 = assay: Cell viability assay (MTT), 72 h; type: cell-based; details: OS 187 (OS), read-out: Buparlisib cell viability IC50
[1] = system: pediatric sarcoma cell lines; assay: Cell viability assay (MTT), panel of sarcoma cell lines; type: cell-based
SK-N-MC = assay: Cell viability assay (MTT), 72 h; type: cell-based; details: Homo sapiens, SK-N-MC (ES), PIK3CA WT, read-out: Buparlisib cell viability IC50
TC-174 = assay: Cell viability assay (MTT), 72 h; type: cell-based; details: TC-174 (ES), PIK3CA WT, read-out: Buparlisib cell viability IC50
6647 = assay: Cell viability assay (MTT), 72 h; type: cell-based; details: 6647 (ES), PIK3CA WT, read-out: Buparlisib cell viability IC50
A204 = assay: Cell viability assay (MTT), 72 h; type: cell-based; details: Homo sapiens, A204 (RMS), PIK3CA WT, read-out: Buparlisib cell viability IC50
KHOS 312H = assay: Cell viability assay (MTT), 72 h; type: cell-based; details: KHOS 312H (OS), read-out: Buparlisib cell viability IC50
RDES = assay: Cell viability assay (MTT), 72 h; type: cell-based; details: RD-ES, PIK3CA WT, read-out: Buparlisib cell viability IC50
TTC-475 = assay: Cell viability assay (MTT), 72 h; type: cell-based; details: TTC-475 (ES), PIK3CA WT, read-out: Buparlisib cell viability IC50
cleaved PARP = assay: Immunoblot of PARP cleavage (apoptosis); type: cell-based
From the text: The primary antibodies used for these studies were rabbit anti-PTEN, rabbit anti-phospho-Akt (Ser473), rabbit anti-phospho-Akt (Thr308), mouse anti-Akt (pan), rabbit anti-phospho-p44/42 MAPK (Erk1/2) (T202/[…] on Erk1, […]/[…] on Erk2), mouse anti-p44/42 MAPK (Erk1/2), mouse anti-phospho-p70 S6 Kinase (Thr389), rabbit anti-p70 S6 Kinase, rabbit anti-phospho-4E-BP1 (Thr37/46), rabbit anti-4E-BP1, rabbit anti-STAT3 (Y705), mouse anti-STAT3, and rabbit anti-cleaved PARP from Cell Signaling Technology; and mouse anti-β-actin from Sigma. Secondary antibodies conjugated to HRP were sheep anti-mouse IgG from GE Healthcare and goat anti-rabbit IgG from Santa Cruz Biotechnology. Secondary antibodies conjugated to infrared dyes were IRDye 800CW goat anti-mouse IgG and IRDye 680RD goat anti-rabbit IgG from LI-COR Biosciences. Fluorescent westerns were imaged using the Odyssey Infrared Imaging System (LI-COR Biosciences). Signals were quantified by measuring the integrated intensity values of each band using Odyssey software (LI-COR Biosciences). […] This occurs as a result of the ability of buparlisib to inhibit tubulin polymerization at higher concentrations.

SKES = assay: Cell viability assay (MTT), 72 h; type: cell-based; details: SKES (ES), PIK3CA WT, read-out: Buparlisib cell viability IC50
TC-248 = assay: Cell viability assay (MTT), 72 h; type: cell-based; details: TC-248 (ES), PIK3CA WT, read-out: Buparlisib cell viability IC50

Compound `Nc1cc(C(F)(F)F)c(-c2cc(N3CCOCC3)nc(N3CCOCC3)n2)cn1` [Buparlisib] has an IC50 (RD) of 1070 nM, an IC50 5838 of 1610 nM and an IC50 (HOS) of 1840 nM. For the same compound, the IC50 (MNNG) was 1600 nM, the IC50 (A673) was 1780 nM and the “specificity to PI3K versus other protein kinases” value (PI3K) was “at least 50 fold”. For the same compound, the IC50 (A4573) was 1560 nM, the IC50 (OS 187) was 1540 nM and the IC50 ([1]; ES and RMS cell lines in general, 72 h, read-out: cell viability IC50) was roughly 1000 nM. For the same compound, the “concentrations at which synergistic effects were observed” value ([1]; buparlisib concentration in combination therapy) was “under 1 μM”, the “combination effect on cell viability” value ([1]; combined with rapamycin, four cell lines (TC-32, A673, RD, A4573), 72 h) was “Synergy” and the “combination effect on cell viability” value ([1]; combined with trametinib, cell lines with (A673, RD) and without (TC-32, A4573) MAPK pathway mutations, 72 h) was “Synergistic effects were only observed in cell lines that contained MAPK pathway mutations”. For the same compound, the “combination effect on cell viability” value ([1]; in combination with NVP-AEW541, ES and RMS cell lines, 72 h) was “Synergy”, the “combination effect on cell viability” value ([1]; in combination with NVP-AEW541, OS cell lines (MNNG), 72 h) was “additive effects” and the IC50 ([1]; median over sarcoma cell lines, 72 h, read-out: median IC50 value, cellular proliferation) was 1100 nM. For the same compound, the “combination effect on cell viability” value ([1]; sequential treatment doxorubicin (4 h) then buparlisib (72 h), ratio 20:3, ES and OS cell lines) was “additive”, the IC50 (SK-N-MC) was 899 nM and the IC50 (TC-174) was 1040 nM. For the same compound, the IC50 6647 was 1010 nM, the IC50 (A204) was 526 nM and the IC50 (KHOS 312H) was 1590 nM. For the same compound, the IC50 (RDES) was 1120 nM, the IC50 (TTC-475) was 1020 nM and the “concentrations resulting in increased PARP cleavage (apoptosis)” value (cleaved PARP; 24 hours of drug treatment, sarcoma cell lines) was “greater than 1.0 μM”. For the same compound, the “induction of apoptosis (PARP cleavage)” value (cleaved PARP; ES cell lines, 24 h) was “potent induction of apoptosis”, the “induction of apoptosis (PARP cleavage)” value (cleaved PARP; OS and RMS cell lines, 24 h) was “modest” and the “apoptosis as measured by PARP cleavage” value (cleaved PARP; combination with NVP-AEW541, A4573 cells, all dose levels, 24 hours) was “increased apoptosis”. The “apoptosis (PARP cleavage)” value (cleaved PARP; combination with rapamycin, A4573 cells, 24 h) was “did not increase apoptosis”, the “apoptosis as measured by PARP cleavage compared to buparlisib alone” value (cleaved PARP; combined with trametinib, A673 cells, 24 h) was “no increase in apoptosis” and the IC50 (SKES) was 822 nM. It also gave an IC50 (TC-248) of 816 nM.

From article PMC4581723, “Evaluation of In Vitro Activity of the Class I PI3K Inhibitor Buparlisib (BKM120) in Pediatric Bone and Soft Tissue Sarcomas” (PLoS ONE, 2015)
